PMC10258794, “To Fold or Not to Fold: Diastereomeric Optimization of an α-Helical Antimicrobial Peptide” (Journal of Medicinal Chemistry, 2023)
In brackets after ≈: the same amount, converted by molar mass. Where two headings read alike, the source gives them in different places.

Experiments:
[1] = EYPC vesicle leakage assay; type: biochemical; details: 10 μg/mL of compound; 10 mM TRIS, 107 mM NaCl, pH 7.4
Protocol: 5(6)-carboxyfluorescein (CF) was purchased from Sigma. EYPC, EYPG, and a Mini-Extruder were purchased from Avanti Polar Lipids. Egg PC or Egg PG thin lipid layers were prepared by evaporating a solution of 100 mg of EYPC or EYPG in 4 mL of MeOH/CHCl3 (1:1) on a rotary evaporator at room temperature and then dried in vacuo overnight. […] Extravesicular components were removed by gel filtration (Sephadex G-50) with 10 mM TRIS, 107 mM NaCl, pH 7.4 buffer. Final conditions: ∼2.5 mM PC or PG; inside: 50 mM CF, 10 mM TRIS, 10 mM NaCl, pH 7.4 buffer; outside: 10 mM TRIS, 107 mM NaCl, pH 7.4. […] The CF efflux was monitored at λem 517 nm (λex 492 nm) as a function of time after addition of the desired volume of peptide from 2 mg/mL stock in mQ water at t = 45 s, 10 and 50 μg/mL were monitored for both EYPC and EYPG. […] Fluorescence intensities were then normalized to the maximal emission intensity using I(t) = (It – I0)/(I∞ – I0) where I0 = It at peptide addition, I∞ = It at saturation of lysis.

P. aeruginosa PAO1 = system: P. aeruginosa PAO1
In short: (§1)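 A colony was grown overnight in LB at 37 °C, diluted in MH medium pH 7.4 to OD600 0.022 and added to 1/2 serial dilutions of compound (final about 5 × 10^5 CFU).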

E. coli W3110 = system: E. coli W3110
In short: as §1

[2] = system: Pseudomonas aeruginosa, Klebsiella pneumoniae, Acinetobacter baumannii, Escherichia coli, and methicillin-resistant Staphylococcus aureus; details: summary of Table 1
In short: as §1

A. baumannii ATCC19606 = system: A. baumannii ATCC19606
In short: as §1

[3] = system: Stenotrophomonas maltophilia; assay: microbe, parasite or virus in culture; type: cell-based; details: pH 7.4
Protocol: (§2) Antimicrobial activity was determined for all peptides on E. coli W3110, P. aeruginosa PAO1, A. baumannii ATCC19606, K. pneumoniae NCTC418, and methicillin-resistant S. aureus COL and for selected peptides on P. aeruginosa PA14 and the polymyxin B-resistant derivatives PA14 4.13, PA14 4.18, and PA14 2P4 as well as the clinical isolates ZEM-1A and ZEM9A, K. pneumoniae OXA-48, Enterobacter cloacae, Stenotrophomonas maltophilia, B. cenocepacia, and Staphylococus epidermis. To determine the MIC, the broth microdilution method was used.[75] A single bacterial colony was grown in LB medium overnight at 37 °C and 180 rpm shaking. The compounds were prepared as stock solutions of 2 mg/mL in sterilized milliQ deionized water, added to the first well of 96-well sterile, polypropylene round-bottom microtiter plates (TPP, untreated, Corning Incorporated, Kennebunk, USA), and diluted serially by 1/2. […] The bacterial inoculum was prepared by measuring the absorbance of the overnight culture, which was diluted to concentration of the bacteria was quantified by measuring absorbance at 600 nm and diluted to an OD600 of 0.022 in MH medium pH 7.4 (Sigma-Aldrich, Buchs, Switzerland). The sample solutions (150 μL) were mixed with 4 μL of diluted bacterial suspension with a final inoculation of about 5 × 10^5 CFU. For each test, two columns of the plate were kept for sterility control (MH medium only) and growth control (MH medium with bacterial inoculum, no compound). […] The plates were incubated at 37 °C for 16–20 h under static conditions. 15 μL of 3-(4,5-dimethylthiazol-2-yl)-2,5-diphenyltetrazolium bromide (MTT)[76] (1 mg/mL in sterilized milliQ deionized water) was added to each well, and the plates were incubated at room temperature until MTT staining was completed. The MIC was defined as the lowest concentration of the dendrimer that inhibits the visible growth of the tested bacteria (yellow) with the unaided eye.

HEK293 cells = assay: Alamar blue cytotoxicity, HEK293; type: cell-based, human; details: 24 h, mean ± SD, n = 3, read-out: Toxicity on HEK293 cells
Protocol: (§3) The A549 human lung adenocarcinoma cells are derived from a patient and were kindly given to us by Dr. Georgia Konstatinidou (Pharmacology Institute, Bern University). HEK293T cells were obtained from ATCC (CRL-11268). A549 and HEK293 were cultured in an incubator at 37 °C with 5% CO2 in RPMI-1640 (Gibco) and DMEM (Gibco) containing 10% fetal bovine serum (Thermo Fisher), 100 I.U./mL penicillin, and 100 μg/mL streptomycin (Gibco).
(§4) The viability of the cells was assessed with an AlamarBlue assay (ThermoFisher). Cells were seeded into 96-well plates, 4000 cells/well (HEK293) and 8000 cells/well (A549), the day before the experiment. Cells were then treated with the increasing concentration of the compound and incubated for 24 h at 37 °C in the presence of 5% CO2. The next day, the medium was removed and replaced by a 10% AlamarBlue solution in full growth medium (DMEM or RPMI-1640). The cells were incubated for 3–5 h at 37 °C with 5% CO2 in a humidified atmosphere. The fluorescence was then measured on a Tecan Infinite M1000 Pro plate reader at λex 560 nm and λem 590 nm. The value was normalized according to the untreated cells.

A549 cells = assay: Alamar blue cytotoxicity, A549; type: cell-based, human; details: 24 h, mean ± SD, n = 3, read-out: Toxicity on A549 lung cancern cells
Protocol: as §3, §4

Staphylococcus epidermis = assay: MIC broth microdilution, Staphylococcus epidermis; type: cell-based; details: pH 7.4
Protocol: as §2

K. pneumoniae Oxa-48 = assay: MIC broth microdilution, K. pneumoniae Oxa-48; type: cell-based, Klebsiella pneumoniae; details: MDR strain; MH broth pH 7.4, 16–20 h, 37 °C
Protocol: as §2

P. aeruginosa ZEM9A = assay: microbe, parasite or virus in culture; type: cell-based, Pseudomonas aeruginosa; details: pH 7.4
Protocol: as §2

S. aureus COL MRSA = system: S. aureus COL MRSA
In short: as §1

K. pneumoniae NCTC418 = system: K. pneumoniae NCTC418
In short: as §1

P. aeruginosa PA14 = assay: microbe, parasite or virus in culture
Protocol: as §2

PA14 4.13 (phoQ) = assay: microbe, parasite or virus in culture; details: supplementary CSV
Protocol: as §2

PA14 4.18 (pmrB) = assay: microbe, parasite or virus in culture; details: supplementary CSV
Protocol: as §2

Enterobacter cloacae = assay: microbe, parasite or virus in culture; details: pH 7.4
Protocol: as §2

P. aeruginosa ZEM-1A = assay: microbe, parasite or virus in culture; details: pH 7.4
Protocol: as §2

PA14 2P4 (pmrB) = assay: microbe, parasite or virus in culture; details: supplementary CSV
Protocol: as §2

Burkolderia cenocepacia = assay: microbe, parasite or virus in culture
Protocol: as §2

[4] = MH broth pH 7.4, 16–20 h, 37 °C
[5] = supplementary CSV, ranges of Table 1 given as one number

For CC(C)C[C@H](NC(=O)[C@H](CC(C)C)NC(=O)[C@@H](CC(C)C)NC(=O)[C@H](CCCCN)NC(=O)[C@@H](CC(C)C)NC(=O)[C@@H](CC(C)C)NC(=O)[C@H](CCCCN)NC(=O)[C@@H](CC(C)C)NC(=O)[C@@H](CC(C)C)NC(=O)[C@H](CCCCN)NC(=O)[C@@H](N)CCCCN)C(N)=O [HP25, KKllKllKlLL], the “EYPC vesicle leakage (%)” value [1] was 4%, the “MIC P. aeruginosa PAO1” value (P. aeruginosa PAO1; [4]) was 8 to 16 µg/mL and the “MIC P. aeruginosa PAO1” value (P. aeruginosa PAO1; [5]) was 12 µg/mL (≈ 9.08 µM). The “MIC E. coli W3110” value (E. coli W3110; [4]) was 8 to 16 µg/mL, the “MIC E. coli W3110” value (E. coli W3110; [5]) was 12 µg/mL (≈ 9.08 µM) and the “MIC, span over E. coli, P. aeruginosa, and A. baumannii” value [2] was 4 to 32 µg/mL. For the same compound, the “MIC A. baumannii ATCC19606” value (A. baumannii ATCC19606; [4]) was 32 µg/mL (≈ 24.2 µM) and the “MIC A. baumannii ATCC19606” value (A. baumannii ATCC19606; [5]) was 32 µg/mL (≈ 24.2 µM).

For CC(C)C[C@H](NC(=O)[C@H](CC(C)C)NC(=O)[C@H](CC(C)C)NC(=O)[C@H](CCCCN)NC(=O)[C@H](CC(C)C)NC(=O)[C@H](CC(C)C)NC(=O)[C@@H](CCCCN)NC(=O)[C@H](CC(C)C)NC(=O)[C@H](CC(C)C)NC(=O)[C@@H](CCCCN)NC(=O)[C@H](N)CCCCN)C(N)=O [HP10, kkLLkLLKLLL], the “MIC Stenotrophomonas maltophilia” value [3] was 2 µg/mL (≈ 1.51 µM), the IC50 (HEK293 cells) was 75.1 ± 1.7 µM and the IC50 (A549 cells) was 15 ± 0.7 µM. The “MIC S. aureus Newman” value (S. aureus Newman; [4]) was 2 µg/mL (≈ 1.51 µM), the “MIC S. aureus Newmann” value (S. aureus Newman; supplementary CSV) was 2 µg/mL (≈ 1.51 µM) and the “MIC Staphylococcus epidermis” value (Staphylococcus epidermis) was 2 µg/mL (≈ 1.51 µM). The “MIC K. pneumoniae Oxa-48” value (K. pneumoniae Oxa-48) was 2 µg/mL (≈ 1.51 µM), the “MIC ZEM9A” value (P. aeruginosa ZEM9A) was 4 µg/mL (≈ 3.03 µM) and the “MIC P. aeruginosa PAO1” value (P. aeruginosa PAO1; [4]) was 4 µg/mL (≈ 3.03 µM). The “MIC P. aeruginosa PAO1” value (P. aeruginosa PAO1; [5]) was 4 µg/mL (≈ 3.03 µM), the “MIC S. aureus COL MRSA” value (S. aureus COL MRSA; [4]) was 2 µg/mL (≈ 1.51 µM) and the “MIC S. aureus COL” value (S. aureus COL MRSA; [5]) was 2 µg/mL (≈ 1.51 µM). The “MIC K. pneumoniae NCTC418” value (K. pneumoniae NCTC418; [4]) was 4 µg/mL (≈ 3.03 µM), the “MIC K. pneumoniae NCTC418” value (K. pneumoniae NCTC418; [5]) was 4 µg/mL (≈ 3.03 µM) and the “MIC E. coli W3110” value (E. coli W3110; [4]) was 2 µg/mL (≈ 1.51 µM). For the same compound, the “MIC A. baumannii ATCC19606” value (A. baumannii ATCC19606; [4]) was 2 µg/mL (≈ 1.51 µM), the “MIC A. baumannii ATCC19606” value (A. baumannii ATCC19606; [5]) was 2 µg/mL (≈ 1.51 µM) and the “MIC PA14” value (P. aeruginosa PA14; [4]) was 2 µg/mL (≈ 1.51 µM). The “MIC P. aeruginosa PA14” value (P. aeruginosa PA14; supplementary CSV) was 2 µg/mL (≈ 1.51 µM), the “MIC P. aeruginosa PA14 4.13” value (PA14 4.13 (phoQ)) was 4 µg/mL (≈ 3.03 µM) and the “MIC P. aeruginosa PA14 4.18” value (PA14 4.18 (pmrB)) was 16 µg/mL (≈ 12.1 µM). For the same compound, the “MIC Enterobacter cloacae” value (Enterobacter cloacae) was 2 µg/mL (≈ 1.51 µM), the “MIC ZEM-1A” value (P. aeruginosa ZEM-1A) was 2 µg/mL (≈ 1.51 µM) and the “MIC P. aeruginosaPA14 2P4” value (PA14 2P4 (pmrB)) was 32 µg/mL (≈ 24.2 µM). For the same compound, the “MIC Burkolderia cenocepacia” value (Burkolderia cenocepacia; MDR strain, MH broth pH 7.4, 16–20 h, 37 °C) was over 64 µg/mL and the “MIC B. cenocepacia” value (Burkolderia cenocepacia; supplementary CSV) was over 64 µg/mL.
